# Laboratory results as given in patent US20190060298A1, “NEW DRUG FOR THE TREATMENT AND/OR PREVENTION OF DEPRESSIVE DISORDERS” (SORBONNE UNIVERSITE, priority 2013, published 2019).
# Columns and labels:
# [1] = system: oxidative stress; test: Oxidative stress state in hippocampus after chronic social defeat; format: in vivo, Sprague-Dawley rats; details: vulnerable (V) rats; 288 μmol/kg/day via osmotic mini-pump for 15 days from D11; measured D31
# Method: The social-defeat procedure (CSD) (D-3 to DO) was performed as previously described (see Becker et al., 2001; Blugeot et al., 2011).
# Briefly, this procedure involved subjecting the same pairs of residents and intruders to four daily conditioning sessions. The 45-min conditioning sessions were divided into two consecutive periods. During period I (30 min), intruders were placed individually in a protective cage within the resident animal's home cage. The protective cage allowed unrestricted visual, auditory, and olfactory contact with the resident but prevented close physical contact. […]
# The animals were decapitated and the left hippocampus was homogenized in ice-cold buffer (20 mM Hepes pH 7.2, 1 mM EGTA, 210 mM mannitol, 70 mM sucrose). […] Catalase and total SOD activities were immediately determined with commercially available kits (Cayman Chemical, Ann Arbor, Mich., USA), in accordance with the manufacturer's instructions. SOD and catalase specific activities are expressed as units per mg of hippocampus and as nmoles of formaldehyde formed per minute per mg of hippocampal tissue, respectively. […]
# For the TBARS assay, protease inhibitors (50 μl/ml), DOC (1%), SDS (0.1%) and Triton® X-100 (0.5%) were added immediately in ice-cold buffer. […] TBARS concentration was calculated from an MDA standard curve and normalized. […]
# [2] = system: aconitase; test: Aconitase activity in hippocampus; format: in vivo, Sprague-Dawley rats; details: V rats; 288 μmol/kg/day, 15 days from D11; D31
# Method: Rats were killed by decapitation and their right hippocampi were rapidly removed and homogenized in ice-cold buffer (5 mM Tris-HCl pH 7.5, 210 mM mannitol, 70 mM sucrose, 1 mM EDTA and 2.3 mM sodium citrate). Homogenates were rapidly centrifuged (14,000×g, 10 min, 4° C.) and the pellets were immediately frozen in liquid nitrogen and stored at −80° C. Aconitase activity was measured spectrophotometrically (Gardner et al., 1994), by monitoring the linear absorbance change at 340 nm, at 25° C., in a 1.0-ml reaction mixture containing 50 mM Tris HCl (pH 7.5), 0.05% BSA, 2 mM sodium citrate, 2 mM MnCl2, 0.4 mM NADP+, 0.85 units of isocitrate dehydrogenase, and 10-20 μg of protein extract. The absorbance change associated with aconitase activity was linear with respect to time and protein concentration. One milliunit of aconitase activity was defined as the amount of enzyme catalyzing the formation of 1 nmol of D-isocitrate per min and per mg.
# (§1) Tempol (4-hydroxy-2,2,6,6-tetramethylpiperidine 1-oxyl), which was administered at a dose of 288 μmol/kg/day [Sigma-Aldrich, St Louis, Mo., USA]), was dissolved in distilled water and delivered via ALZET osmotic mini-pumps (2002, Charles River Laboratories, France). […]
# [3] = system: Sprague-Dawley rats; test: Sweet water consumption after sensitization paradigm; format: in vivo; details: V animals; TEMPOL 288 μmol/kg/day 15 days from D11; after three weeks of CMS applied at D31
# Method: Sprague-Dawley rats were subjected to chronic social defeat (CSD) and then, four weeks later, to three weeks of chronic mild stress (SSP rats). The chronic mild stress protocol (CMS) was performed as previously described (see Blugeot et al., 2011). The control rats were control intruders (not subjected to CSD) not exposed to the three weeks of CMS (C rats).
# The CMS protocol is derived from that described by Willner et al. (1992). Briefly, various mild stresses were applied every day, over a period of three weeks. Briefly, from Monday to Friday, every morning, animals were placed in a small cage (10×16×15 cm) for 1 hour. In the afternoon, they were shaken for 10 min (Monday and Thursday), placed in a small cage containing water (2 cm high, Tuesday) or placed in another cage for 4 hours (Wednesday and Friday). Every night, the cage was inclined (45°, Tuesday and Thursday) or contained wet bedding (Wednesday and Friday). On Saturday and Sunday, the rats were subjected to a reversed dark/light cycle for 30 min, every three hours.
# Experiments were performed as described by Becker et al. (2008) and Blugeot et al. (2011). Sucrose and water intakes were measured daily at 9:00 am. Weekly sweet water consumption was expressed as a percentage of control values (measured one week before the beginning of the conditioning sessions). Sweet water consumption indicated a preference for sucrose. […]
# [4] = system: BDNF; test: Serum BDNF assay; format: in vivo, Sprague-Dawley rats; details: vulnerable animals vs vulnerable animals treated with vehicle
# Method: Blood samples (200 μl) were collected from conscious rats at various time points (D-4, D5, D11, D31 at midday). These samples were taken from the tail vein and were collected in Eppendorf tubes. The samples were centrifuged to separate off the serum, which was stored at −20° C. until BDNF analysis. BDNF concentrations were determined at a dilution of 1:25, with a commercial BDNF assay (Promega Corporation), in 96-well plates (Corning Costar® EIA plate), according to the manufacturer's instructions.
# Another serum BDNF was carried out. Blood samples (200 μl) of awake rats were collected at different time-points (D-4, D9, D35, D57 at midday) from the vein of the tail into eppendorf tubes. After centrifugation, serum was separated and stored at −20° C. until analysis for BDNF. BDNF concentrations were determined at dilution of 1:25 with a commercial BDNF assay (Promega Corporation), in 96-well plates (Corning Costar® EIA plate), according to the manufacturer's instructions.
# as §1
smiles,measurement,setting,value
"CC1(C)CC(O)CC(C)(C)N1[O] [TEMPOL, 4-hydroxy-2,2,6,6-tetramethylpiperidin-1-oxyl]",oxidative stress,[1],decreased the oxidative stress in V animals
same,aconitase activity,[2],lack of aconitase activity dysfunction
same,sweet water consumption,[3],prevented
same,serum BDNF levels,[4],induced the recovery of serum BDNF levels
